Here are results for ten molecules from patent US20120208809A1, “9H-PYRROLO[2,3-B: 5,4-C'] DIPYRIDINE AZACARBOLINE DERIVATIVES, PREPARATION THEREOF, AND THERAPEUTIC USE THEREOF” (SANOFI, priority 2009, published 2012).

The target in one experiment is T1, Pim-2 (Homo sapiens, UniProt Q9P1W9).
T1 construct: full-length human recombinant His6-labelled Pim-1, Pim-2 or Pim-3 protein; His6; made in house
The experiment is described as follows: TR-FRET assay of Pim kinase activity (phosphorylation of Bad Ser112), Pim-2. The format is biochemical. As to conditions: ATP 40 μM, read-out: IC50 Pim2. Summed up:
(§1)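 Full-length His6-tagged human Pim-1, -2 or -3 phosphorylate full-length His6-Bad at 40 μM ATP; phospho-Ser112 detected by TR-FRET (Eu anti-phosphoBad, APC anti-His6), 665/615 nm ratio. Compounds run at 10 concentrations in duplicate, typically top 30 μM; IC50 from 4-parameter logistic fit.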
In general terms: In TR-FRET formats the signal depends on donor and acceptor labels being close together.

The next experiment has as its system phosphoBAD (DND-41). In words: Level of phosphorylation of Bad by ELISA, DND-41 cell line. Particulars: Homo sapiens, DND41, DND-41 cells, 3 hours at 37° C. The format is cell-based. Here is the method: The activity of the molecules is evaluated on the JEKO or DND-41 cell line by measuring the level of phosphorylation of Bad and the total Bad content, via the ELISA technique.
The JEKO or DND-41 cells are resuspended at a concentration of 500 000 cells per ml. The cells are then diluted in RPMI-1640 medium containing 20% foetal calf serum. 225 μl of cells are placed in a plate. Serial dilutions of the molecules are then performed (8 points, three-fold dilution, range started at 10 mM). Each dilution point is then diluted to 1/100 in medium. Next, 25 μl of each of the concentrations are added to the cells and then incubated for 3 hours at 37° C.
100 μl of the cells are transferred into a plate treated with poly-D-Lysine. The plate is then incubated for 5-10 minutes at 37° C. and then centrifuged for 5 minutes at 1500 rpm. A volume of 100 μl of 8% fixing solution (solution of formaldehyde in PBS buffer) is added to each of the wells. After covering with a self-adhesive film and a lid, the plate is incubated for 20 minutes at room temperature and then stored at 4° C. overnight.
Next, the liquid is removed and two successive washes are performed with washing buffer. 100 μl of quenching buffer are added, followed by incubating for 15 minutes at room temperature. After washing, 100 μl of […] at room temperature. After washing, 50 μl of primary antibody diluted to 1/250 for pBAD (Cell Signaling Cat#5284) and to 1/500 for Bad (MBL Cat#591) are added to each of the plates. Each plate is incubated for 2 hours at room temperature. After two washes, 50 μl of secondary antibody (diluted to 1/16) are added to the pBAD plate (tebu-bio ref; FE-021) and 50 μl of the HRP-conjugated IgG secondary antibody (Santa Cruz Cat #SC-2004; diluted to 1/1000) are added to the Bad plate. Incubation for 1 hour at room temperature is performed. Four washes with the washing solution are performed, followed by three washes with PBS. Finally, 100 μl of the developing solution are added, followed by incubation for 10 minutes. Finally, 100 μl of the quenching solution are added, before reading at 450 nm.
Background: ELISA stands for enzyme-linked immunosorbent assay.

For another experiment, the target named is CDK1 (Homo sapiens, UniProt P06493). The experiment is described as follows: Biochemical results, IC50 CDK1.
A further experiment addresses PLK1 (Homo sapiens, UniProt P53350). In words: Biochemical results, IC50 PLK1.
A further experiment deals with T2, Pim-3 (Homo sapiens, UniProt Q86V86).
T2 construct: full-length human recombinant His6-labelled Pim-1, Pim-2 or Pim-3 protein; His6; made in house
The experiment is described as follows: TR-FRET assay of Pim kinase activity (phosphorylation of Bad Ser112), Pim-3. The experiment is classed as biochemical. As to conditions: ATP 40 μM, read-out: IC50 Pim3. Summed up: as §1

In a further experiment the test system is EOL-1. The experiment is described as follows: Cell viability assay (CellTiter-Blue), EOL-1.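 Note: EOL-1 is an acute myeloid eosinophilic leukaemia line not a lymphoma.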 Particulars: Homo sapiens, EOL1, read-out: EC50 EOL-1 μM (eosinophilic leukaemia), EOL-1 cells, read-out: EC50 EOL-1 μM (lymphoma). The experiment is classed as cell-based. From the text:
(§2) The representative compounds of the invention are also screened as regards their effects on cell proliferation and viability, using a variety of tumoral cell lines of human source, representative of different pathological indications. These cell lines include:
Models of Haematological Cancers: • TF-1 (acute myelogenic leukaemia; AML M6 at the time of diagnosis); • K G-1 (AML; erythroleukaemia evolving into AML); • KG-1a (AML; subclone derived from immature KG-1); • EOL-1 (AML: eosinophilic leukaemia); • PL-21 (AML; M3); • ML-2 (AML; T-NHL evolving into T-ALL evolving into AML M4); • HL-60 (AML, M3); • Kasumi-1 (AML); • GDM-1 (AML); • K-562 (CML—chronic myelogenic leukaemia; blastic crisis); • JURL-MK1 (CML; blastic crisis); • DND-41 (T-ALL—T-cell acute lymphoblastic leukaemia); • Jurkat (T-ALL); NALM-6 (B-ALL B-cell ALL); • CEM (ALL; lymphosarcoma evolving into ALL); • Jeko-1 (B-NHL—B-cell non-Hodgkin lymphoma; lymphoma with coat cells derived from a large-cell variant in leukaemic transformation); • WSU-DLCL2 (B-NHL; diffuse lymphoma with large B cells); • RL (B-NHL; undifferentiated diffuse); • OCl-Ly10 (B-NHL); • DoHH-2 (B-NHL); • RPMI-8226 (MM—multiple myelomas); • JVM-2 (B-CLL—B-cell chronic lymphocytic leukaemia); and • JVM-3 (B-CLL).
(§3) In order to measure the viability, the tumour cells are incubated in 96-well or 384-well format for 48, 72 or 96 hours, preferably 72 hours, with a compound of the invention at dilutions of a factor 3, with, in general, nine doses in total, the highest dose being equal to 10 μM or 30 μM. The cell viability is evaluated by adding CellTiter-Blue® (Promega, Madison, Wis., United States) for 4 hours and endpoint readings are taken using a SpectraMax Genmini EM plate reader (Molecular Devices, Sunnyvale, Calif., United States). The CellTiter-Blue® cell viability assay measures the ability of the cells in culture to reduce resazurin to resorufin, the intensity of the fluorescence signal being directly proportional to the number of live cells. The EC50 represents the concentration of compound that leads to a 50% reduction of the viability/proliferative expansion of the cells.

A further experiment deals with T3, Pim-1 (Homo sapiens, UniProt P11309).
T3 construct: full-length human recombinant His6-labelled Pim-1, Pim-2 or Pim-3 protein; His6; made in house
In words: TR-FRET assay of Pim kinase activity (phosphorylation of Bad Ser112), Pim-1. The format is biochemical. Particulars: ATP 40 μM, read-out: IC50 Pim1. Summed up: as §1

A further experiment concerns MV4-11. In words: Cell viability assay (CellTiter-Blue), MV4-11. The format is cell-based. Particulars: Homo sapiens, read-out: EC50 MV4-11 μM (acute myeloid leukemia), MV4-11 cells, read-out: EC50 MV4-11 μM (myeloma). Here is the method:
as §2, §3

What is called IC50 is the concentration at which inhibition is half-maximal. Usually EC50 stands for the midpoint of the concentration-response curve.

Each structure is given as a SMILES string.

T3 sequence (P11309 whole entry): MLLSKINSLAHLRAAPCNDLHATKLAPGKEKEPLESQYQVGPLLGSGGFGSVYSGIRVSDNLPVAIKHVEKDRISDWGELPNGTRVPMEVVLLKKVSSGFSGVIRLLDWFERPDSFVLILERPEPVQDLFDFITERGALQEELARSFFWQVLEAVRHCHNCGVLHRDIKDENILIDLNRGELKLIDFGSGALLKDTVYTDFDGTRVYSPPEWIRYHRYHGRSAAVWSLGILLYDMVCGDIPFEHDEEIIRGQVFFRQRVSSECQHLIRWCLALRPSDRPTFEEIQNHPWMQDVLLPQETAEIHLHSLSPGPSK
T1 sequence (Q9P1W9 whole entry): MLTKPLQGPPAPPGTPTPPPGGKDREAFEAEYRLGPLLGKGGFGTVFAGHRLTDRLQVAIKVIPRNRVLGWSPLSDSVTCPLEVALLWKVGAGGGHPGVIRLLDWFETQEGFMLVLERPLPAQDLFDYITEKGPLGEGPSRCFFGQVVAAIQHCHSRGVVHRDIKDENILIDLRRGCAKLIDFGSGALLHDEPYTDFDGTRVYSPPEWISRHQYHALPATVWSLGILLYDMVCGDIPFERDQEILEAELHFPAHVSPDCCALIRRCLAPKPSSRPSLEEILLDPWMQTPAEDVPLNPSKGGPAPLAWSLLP
Sequence of PLK1 (P53350 whole entry, species assumed): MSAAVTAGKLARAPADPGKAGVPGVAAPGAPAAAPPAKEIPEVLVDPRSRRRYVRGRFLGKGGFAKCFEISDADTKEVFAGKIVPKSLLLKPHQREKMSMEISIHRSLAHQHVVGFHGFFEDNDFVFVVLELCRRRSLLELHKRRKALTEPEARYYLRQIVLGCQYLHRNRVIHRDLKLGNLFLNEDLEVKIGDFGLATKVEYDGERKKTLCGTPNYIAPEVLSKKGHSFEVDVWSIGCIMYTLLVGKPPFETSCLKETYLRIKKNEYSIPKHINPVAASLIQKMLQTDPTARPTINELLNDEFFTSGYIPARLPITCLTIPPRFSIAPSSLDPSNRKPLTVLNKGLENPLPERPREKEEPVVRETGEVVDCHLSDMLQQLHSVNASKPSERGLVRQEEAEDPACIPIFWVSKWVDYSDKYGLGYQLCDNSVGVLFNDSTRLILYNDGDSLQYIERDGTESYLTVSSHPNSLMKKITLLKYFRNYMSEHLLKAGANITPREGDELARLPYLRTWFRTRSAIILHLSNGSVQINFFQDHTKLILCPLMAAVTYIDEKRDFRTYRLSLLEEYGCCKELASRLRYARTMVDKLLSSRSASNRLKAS
Sequence of CDK1 (P06493 whole entry, species assumed): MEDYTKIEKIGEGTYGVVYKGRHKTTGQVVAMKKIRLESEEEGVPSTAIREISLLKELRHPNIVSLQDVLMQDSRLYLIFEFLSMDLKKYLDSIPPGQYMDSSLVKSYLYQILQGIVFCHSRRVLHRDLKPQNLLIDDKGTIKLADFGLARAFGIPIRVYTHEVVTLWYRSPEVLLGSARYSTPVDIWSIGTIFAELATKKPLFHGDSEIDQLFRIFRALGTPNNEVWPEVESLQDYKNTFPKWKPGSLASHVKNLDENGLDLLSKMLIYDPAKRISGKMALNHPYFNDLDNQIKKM
Sequence of CDK1 (P14635 whole entry partner, species assumed): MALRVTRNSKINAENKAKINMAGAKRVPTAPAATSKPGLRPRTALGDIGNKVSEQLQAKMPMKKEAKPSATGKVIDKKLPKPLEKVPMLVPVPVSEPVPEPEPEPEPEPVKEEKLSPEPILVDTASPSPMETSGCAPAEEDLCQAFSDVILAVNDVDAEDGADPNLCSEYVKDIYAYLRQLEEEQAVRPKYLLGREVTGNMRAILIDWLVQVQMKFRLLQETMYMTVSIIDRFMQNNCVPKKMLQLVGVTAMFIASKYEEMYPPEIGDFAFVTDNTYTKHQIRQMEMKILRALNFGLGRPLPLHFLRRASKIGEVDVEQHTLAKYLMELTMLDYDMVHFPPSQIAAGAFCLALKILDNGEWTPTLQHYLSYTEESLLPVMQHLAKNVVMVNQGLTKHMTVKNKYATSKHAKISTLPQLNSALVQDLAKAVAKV

Take `CC(CN(C)C)NC(=O)c1ccc(-c2c(F)cnc3[nH]c4cnc(-c5cccnc5)cc4c23)cc1` (stereo not shown) [Example 68, N-[1-(dimethylamino)propan-2-yl]-4-[3-fluoro-6-(pyridin-3-yl)-9H-pyrrolo[2,3-b:5,4c′]dipyridin-4-yl]benzamide]: the IC50 on Pim-2 is < 100 nM; in the experiment on phosphoBAD (DND-41), < 100 nM; against CDK1 it was 1000 to 5000 nM; against PLK1, 1000 to 5000 nM; at Pim-3, < 100 nM; at Pim-1, < 100 nM. The EC50 was < 100 nM in the experiment on EOL-1 and 100 to 1000 nM in the experiment on MV4-11.
On to `COCCOc1cnc2[nH]c3cnc(-c4cccnc4)cc3c2c1-c1ccc(C(=O)NCCN(C)C)cc1` [Example 120, N-[2-(dimethylamino)ethyl]-4-[3-(2-methoxyethoxy)-6-(pyridin-3-yl)-9H-pyrrolo[2,3-b:5,4-c′]dipyridin-4-yl]benzamide], for which the IC50 at Pim-2 was < 100 nM; in the experiment on phosphoBAD (DND-41), 100 to 1000 nM; at Pim-3, < 100 nM; on Pim-1 it was < 100 nM. Also, the EC50 in the experiment on EOL-1 and in the experiment with MV4-11 was < 100 nM each time.
As for `CN(C)CCCN(C)C(=O)c1ccc(-c2c(F)cnc3[nH]c4cnc(-c5cccnc5)cc4c23)cc1` [Example 59, N-[3-(dimethylamino)propyl]-4-[3-fluoro-6-(pyridin-3-yl)-9H-pyrrolo[2,3-b:5,4-c′]dipyridin-4-yl]-N-methylbenzamide], the IC50 is 100 to 1000 nM on Pim-2; 1000 to 5000 nM in the experiment with phosphoBAD (DND-41); 100 to 1000 nM at CDK1; 1000 to 5000 nM on PLK1; < 100 nM on Pim-3; < 100 nM at Pim-1. For the same molecule, the EC50 in the experiment on EOL-1 and in the experiment with MV4-11 was 100 to 1000 nM throughout.
For the molecule `NC1(CNC(=O)c2ccc(-c3c(F)cnc4[nH]c5cnc(-c6cccnc6)cc5c34)cc2)CC1` [Example 89, N-[(1-aminocyclopropyl)methyl]-4-[3-fluoro-6-(pyridin-3-yl)-9H-pyrrolo[2,3-b:5,4-c′]dipyridin-4-yl]benzamide], the IC50 on Pim-2 is < 100 nM; against CDK1, 100 to 1000 nM; against PLK1 it was 100 to 1000 nM; at Pim-3, < 100 nM; at Pim-1 it was < 100 nM. The EC50 with EOL-1 and in the experiment on MV4-11 was 100 to 1000 nM throughout.
`NCCNC(=O)c1ccc(-c2c(F)cnc3[nH]c4cnc(-c5cccnc5)cc4c23)cc1` [Example 28, N-(2-aminoethyl)-4-[3-fluoro-6-(pyridin-3-yl)-9H-pyrrolo[2,3-b:5,4-c′]dipyridin-4-yl]benzamide]: the IC50 on Pim-2 is < 100 nM; with phosphoBAD (DND-41), 1000 to 5000 nM; at CDK1 it was 100 to 1000 nM; on PLK1, 100 to 1000 nM; on Pim-3, < 100 nM; on Pim-1, < 100 nM. Moreover, the EC50 in the experiment with EOL-1 and with MV4-11 was 100 to 1000 nM throughout.
With `CN1CCC(CCNC(=O)c2ccc(-c3c(F)cnc4[nH]c5cnc(-c6cccnc6)cc5c34)cc2)CC1` [Example 61, 4-[3-fluoro-6-(pyridin-3-yl)-9H-pyrrolo[2,3-b:5,4-c′]dipyridin-4-yl]-N-[2-(1-methylpiperidin-4-yl)ethyl]benzamide], the IC50 at Pim-2 is 100 to 1000 nM; with phosphoBAD (DND-41) it was 1000 to 5000 nM; against CDK1 it was 1000 to 5000 nM; on PLK1 it was 1000 to 5000 nM; at Pim-3 it was < 100 nM; at Pim-1, < 100 nM. Moreover, the EC50 in the experiment with EOL-1 and with MV4-11 was 100 to 1000 nM each time.
As to `CC(CNC(=O)c1ccc(-c2c(F)cnc3[nH]c4cnc(-c5cccnc5)cc4c23)cc1)N1CCCC1` (stereo not shown) [Example 63, 4-[3-fluoro-6-(pyridin-3-yl)-9H-pyrrolo[2,3-b:5,4-c′]dipyridin-4-yl]-N-[2-(pyrrolidin-1-yl)propyl]benzamide], the IC50 on Pim-2 is 100 to 1000 nM; with phosphoBAD (DND-41) it was 100 to 1000 nM; against CDK1, 1000 to 5000 nM; against PLK1, 100 to 1000 nM; on Pim-3, < 100 nM; on Pim-1 it was < 100 nM. The EC50 in the experiment with EOL-1 and in the experiment on MV4-11 was 100 to 1000 nM throughout.
For the molecule `NCC(F)(F)CNC(=O)c1ccc(-c2c(F)cnc3[nH]c4cnc(-c5cccnc5)cc4c23)cc1` [Example 90, N-(3-amino-2,2-difluoropropyl)-4-[3-fluoro-6-(pyridin-3-yl)-9H-pyrrolo[2,3-b:5,4-c′]dipyridin-4-yl]benzamide], the IC50 on Pim-2 was 100 to 1000 nM; against CDK1, 100 to 1000 nM; against PLK1 it was 100 to 1000 nM; at Pim-3, < 100 nM; on Pim-1 it was < 100 nM. For the same molecule, the EC50 with EOL-1 and with MV4-11 was 100 to 1000 nM each time.
On to `CN(C)CCNC(=O)c1ccc(-c2c(F)cnc3[nH]c4cnc(-c5cnn(C)c5)cc4c23)cc1` [Example 37, N-[3-(dimethylamino)ethyl]-4-[3-fluoro-6-(1-methyl-1H-pyrazol-4-yl)-9H-pyrrolo[2,3-b:5,4-c′]dipyridin-4-yl]benzamide], for which the IC50 at Pim-2 is < 100 nM; in the experiment with phosphoBAD (DND-41), 1000 to 5000 nM; against CDK1, 100 to 1000 nM; on PLK1, 1000 to 5000 nM; at Pim-3 it was < 100 nM; on Pim-1 it was < 100 nM.
On to `CCNCCNC(=O)c1ccc(-c2c(F)cnc3[nH]c4cnc(-c5cccnc5)cc4c23)cc1` [Example 87, N-[2-(ethylamino)ethyl]-4-[3-fluoro-6-(pyridin-3-yl)-9H-pyrrolo[2,3-b:5,4-c′]dipyridin-4-yl]benzamide], for which the half-inhibitory concentration (IC50) was < 100 nM on Pim-2; 100 to 1000 nM at CDK1; 100 to 1000 nM against PLK1; < 100 nM at Pim-3; < 100 nM at Pim-1. Further, the EC50 with EOL-1 and with MV4-11 was 100 to 1000 nM throughout.
